# Measurements reported in patent US20250034127A1, “AUTOPHAGY INDUCING COMPOUNDS AND USES THEREOF, IN PARTICULAR FOR DISEASES OF THE CNS” (Samsara Therapeutics Inc., priority 2021, published 2025).
# Test system: primary spinal cord lower motor neurons (MNs) from SOD1 G93A Tg rats
# Assay: Cellular model of Amyotrophic Lateral Sclerosis (glutamate injury)
# Format: cell-based, rat
# Protocol: Compounds 157 (particularly) preferred), 185 and 196 were selected example compounds if this invention to evaluate in this model. This model (run by Neuro-Sys SAS, France) evaluates the protective effects of test compounds on primary spinal cord lower motor neurons (MNs) from SOD1 G93A Tg rats, after a glutamate injury. The MNs are pre-treated with the test compounds for 1 hour prior to exposure to glutamate, and readouts are measured 24 hours later. This model functions as an in vitro model of Amyotrophic Lateral Sclerosis. […] Any substances which can attenuate one or more of these effects can be considered to have protective effects in the model and may be useful as a new therapeutic agent for the treatment or prevention of ALS.
# Genotyping of SOD1 Tg embryos: Pregnant female rat SODIG93A (Sprague Dawley, Taconic), of 14 days of gestation were obtained fromTaconic Bioscience. On the day of the dissection (from pregnant females at 14 days of gestation), a piece of each embryo brain (˜3 mm) was placed in a 2 mL tube free DNase with a new scalpel. The DNA was extracted with the SYBR Green Extract-N-Amp tissue PCR kit (Sigma Aldrich). Briefly, 120 μL of extraction solution was put on each piece of embryo heads. Then, they were incubated for 10 min at room temperature. At the end of this incubation period, the heads were incubated for 5 min at 95° C. Immediately after this last incubation, 100 μL of neutralizing solution was added; each DNA extract was diluted at 1/40 and stored at +4° C. until use. SOD1G93A gene was determined using genomic fragment with human SOD1 primers (5′-[…]-3′ (SEQ ID NO: 1); 5′-[…]-3′ (SEQ ID NO: 2)). The SOD1 primers were diluted at 3 μM in sterile ultrapure water. Briefly, a mix for PCR was prepared with ultrapure water (4 μL per sample), primer at 3 μM (2 μL per sample) and Master Mix (10 μL per sample). In a PCR 96 wells plate, 16 μL of PCR mix was added in each well. 4 μL of each diluted DNA was added according to a plan deposit. The RT-PCR was ran using the CFX96 Biorad RT-PCR system, using the following program: Initial denaturation (95° C., 20 sec)/45 cycles (95° C., 10 sec; 65° C., 10 sec; 72° C., 30 sec)/Melt curve (95° C., 15 sec; 64° C., 1 min; 90° C., 30 sec; 60° C. 15 sec). The amplification plots and melt curves were analyzed with the Biorad software. The results for each sample were compared to negative control (ultrapure water) and to the positive control (DNA from Tg embryos).
# Rat spinal cord motor neurons (MNs) were be cultured as described by Wang et al. 2013 and Boussicault et al., 2020. Briefly, pregnant female rats of 14 days gestation (Sprague Dawley; Taconic) were killed using a deep anesthesia with CO2 chamber and a cervical dislocation. Then, fetuses were removed from the uterus and immediately placed in ice-cold L15 Leibovitz medium with a 2% penicillin (10,000 U/ml) and streptomycin (10 mg/ml) solution (PS) and 1% bovine serum albumin (BSA).
# Spinal cords were treated for 20 min at 37° C. with a trypsin-EDTA solution at a final concentration of 0.05% trypsin and 0.02% EDTA. The dissociation was stopped by addition of Dulbecco's modified Eagle's medium (DMEM) with 4.5 g/liter of glucose, containing DNAse I grade II (final concentration 0.5 mg/mL) and 10% fetal calf serum (FCS). Cells were mechanically dissociated by three forced passages through the tip of a 10-ml pipette. Cells were then centrifuged at 515×g for 10 min at 4° C. The supernatant was discarded, and the pellet was resuspended in a defined culture medium consisting of Neurobasal medium with a 2% solution of B27 supplement, 2 mmol/liter of L-glutamine, 2% of PS solution, and 10 ng/ml of brain-derived neurotrophic factor (BDNF). Viable cells were counted in a Neubauer cytometer, using the trypan blue exclusion test. The cells were seeded at a density of 20,000 per well in 96-well plates precoated with poly-L-lysine and will be cultured at 37° C. in an air (95%)—CO2 (5%) incubator. […]
structure (smiles),measurement,setting,value
"CCN1CCC(N(C)C(=O)c2csc(-c3cnn(-c4ccccc4)c3)n2)CC1 [Compound 196, N-(1-ethylpiperidin-4-yl)-N-methyl-2-(1-phenyl-1H-pyrazol-4-yl)-1,3-thiazole-4-carboxamide]",effects in the in vitro model of ALS,,positive effects
same,abnormal TDP43 accumulation in the cytoplasm resulting from glutamate injury,"0.5 μM, 1 μM and 10 μM",fully abolished
same,increase in neurite network length,"10 μM, compared to glutamate injury alone",16%
same,increase in number of motor neurons,"1 and 10 μM, compared to glutamate injury alone",> 10%
